Assay results taken from PubChem BioAssay (NCI).
Where “and” joins values, the source holds several entries; their conditions need not be identical. Equal values may be shown once.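 Five compound concentrations were applied to cells in 96-well plates for 48 hours; endpoints were derived by simple linear interpolation of the resulting dose-response curve. At the GI50, growth is halved. Definition used: TGI = concentration required for complete inhibition of growth.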

Key:
Test in all cases: NCI tumour cell line growth inhibition, 48 h
[1] = test system: SF-268 CNS
[2] = test system: A549 NSCLC
[3] = test system: HCT-15 colon
[4] = test system: IGROV1 ovarian
[5] = test system: 786-0 renal
[6] = test system: UO-31 renal
[7] = test system: SN12C renal
[8] = test system: CCRF-CEM leukemia
[9] = test system: HT29 colon
[10] = test system: SF-295 CNS
[11] = test system: MOLT-4 leukemia
[12] = test system: SNB-75 CNS
[13] = test system: OVCAR-4 ovarian
[14] = test system: KM20L2 colon
[15] = test system: NCI-H522 lung
[16] = test system: HOP-18 NSCLC
[17] = test system: DMS 273 small cell lung
[18] = test system: U251 CNS
[19] = test system: KM12 colon
[20] = test system: M14 melanoma
[21] = test system: NCI-H23 lung
[22] = test system: UACC-257 melanoma
[23] = test system: SK-MEL-2 melanoma
[24] = test system: UACC-62 melanoma
[25] = test system: SK-OV-3 ovarian
[26] = test system: HOP-92 NSCLC
[27] = test system: RXF 393 renal
[28] = test system: SW-620 colon
[29] = test system: EKVX NSCLC
[30] = test system: DMS 114 small cell lung
[31] = test system: SF-539 CNS
[32] = test system: ACHN renal
[33] = test system: CAKI-1 renal
[34] = test system: SK-MEL-28 melanoma
[35] = test system: OVCAR-3 ovarian
[36] = test system: OVCAR-8 ovarian
[37] = test system: LOX IMVI melanoma
[38] = test system: HOP-62 NSCLC
[39] = test system: RPMI-8226 leukemia
[40] = test system: TK-10 renal
[41] = test system: K-562 leukemia
[42] = test system: HL-60(TB) leukemia
[43] = test system: RXF-631 renal
[44] = test system: NCI-H460 lung
[45] = test system: DLD-1 colon
[46] = test system: LXFL 529 NSCLC
[47] = test system: COLO 205 colon
[48] = test system: M19-MEL melanoma
[49] = test system: MALME-3M melanoma
[50] = test system: OVCAR-5 ovarian
[51] = test system: SK-MEL-5 melanoma
[52] = test system: HCC-2998 colon
[53] = test system: A498 renal
[54] = test system: XF 498 CNS
[55] = test system: SR leukemia
[56] = test system: NCI-H226 lung
[57] = test system: SNB-19 CNS
[58] = test system: HCT-116 colon
[59] = test system: MDA-N
[60] = test system: NCI/ADR-RES ovarian
[61] = test system: HS 578T breast
[62] = test system: T-47D breast
[63] = test system: DU-145 prostate
[64] = test system: MCF7 breast
[65] = test system: MDA-MB-231 breast
[66] = test system: PC-3 prostate
[67] = test system: BT-549 breast
[68] = test system: MDA-MB-435

## O=C1c2ccccc2C2(Br)C(=O)c3ccccc3C12 (centres undefined)
[1]
  TGI: > 100 µM
[2]
  TGI: > 100 µM
[3]
  TGI: > 100 µM
[4]
  TGI: > 100 µM
[5]
  TGI: > 100 µM
[6]
  TGI: > 100 µM
[7]
  TGI: > 100 µM
[8]
  TGI: > 100 µM
[9]
  TGI: > 100 µM
[10]
  TGI: > 100 µM
[11]
  TGI: > 100 µM
[12]
  TGI: > 100 µM
[13]
  TGI: > 100 µM
[14]
  TGI: > 100 µM
[15]
  TGI: > 100 µM
[16]
  TGI: > 100 µM
[17]
  TGI: 42.5 µM
[18]
  TGI: > 100000 nM
[19]
  TGI: > 100 µM
[20]
  TGI: > 100 µM
[21]
  TGI: > 100000 nM
[22]
  TGI: > 100 µM
[23]
  TGI: > 100 µM
[24]
  TGI: > 100 µM
[25]
  TGI: > 100000 nM
[26]
  TGI: > 100 µM
[27]
  TGI: > 100 µM
[28]
  TGI: > 100 µM
[29]
  TGI: > 100 µM
[30]
  TGI: > 100000 nM
[31]
  TGI: > 100000 nM
[32]
  TGI: > 100 µM
[33]
  TGI: > 100 µM
[34]
  TGI: > 100 µM
[35]
  TGI: > 100 µM
[36]
  TGI: > 100 µM
[37]
  TGI: 26.4 µM
[38]
  TGI: > 100 µM
[39]
  TGI: > 100 µM
[40]
  TGI: > 100 µM
[41]
  TGI: > 100 µM
[42]
  TGI: > 100 µM
[43]
  TGI: 28.1 µM
[44]
  TGI: > 100 µM
[45]
  TGI: > 100 µM
[46]
  TGI: > 100 µM
[47]
  TGI: > 100000 nM
[48]
  TGI: > 100 µM
[49]
  TGI: > 100 µM
[50]
  TGI: > 100 µM
[51]
  TGI: > 100 µM
[52]
  TGI: > 100000 nM

## CCOC(=O)Oc1c(OC)cc(C(=O)NC2CCc3cc(OC)c(OC)c(OC)c3-c3ccc(SC)c(=O)cc32)cc1OC (centres undefined)
[1]
  GI50: 17.4 nM
  TGI: 21.4 µM
[53]
  GI50: 20.6 nM
  TGI: 514 nM and 62.2 nM
[2]
  GI50: 28.8 nM
  TGI: > 70 µM
[3]
  GI50: 132 nM
  TGI: 13.6 µM
[4]
  GI50: < 7 nM
  TGI: > 70 µM
[5]
  GI50: 23 nM
  TGI: 13 µM
[6]
  TGI: > 70 µM
[7]
  GI50: 13.6 nM
  TGI: 25.2 µM
[9]
  TGI: 0.489 µM
[10]
  GI50: 24.2 nM
[54]
  TGI: 896 nM
[11]
  GI50: < 7 nM
  TGI: > 70 µM
[12]
  GI50: < 7 nM
  TGI: < 0.007 µM
[55]
  TGI: < 0.007 µM
[13]
  GI50: 14.8 µM
  TGI: > 70 µM
[14]
  GI50: 11.9 nM
[15]
  TGI: < 0.007 µM
[17]
  TGI: > 70 µM
[18]
  GI50: 9.62 nM
  TGI: 287 nM and 57.9 nM
[19]
  GI50: < 7 nM
[20]
  GI50: 16.6 nM
  TGI: 10.7 µM
[21]
  GI50: < 7 nM
  TGI: 266 nM and 38.8 nM
[22]
  GI50: < 7 nM
  TGI: > 70 µM
[23]
  TGI: 0.0832 µM
[24]
  GI50: 8.81 nM
  TGI: > 70 µM
[25]
  GI50: 7.17 nM
  TGI: 466 nM and 55.3 nM
[26]
  TGI: 0.871 µM
[28]
  GI50: < 7 nM
  TGI: > 70 µM
[56]
  GI50: 7.09 nM
  TGI: 97.4 nM and 24.2 nM
[29]
  TGI: 37.9 µM
[30]
  GI50: < 7 nM
  TGI: 55.6 nM and < 7 nM
[31]
  GI50: < 7 nM
  TGI: 57 nM and 7.43 nM
[32]
  GI50: 235 nM
  TGI: > 70 µM
[34]
  TGI: > 70 µM
[35]
  GI50: < 7 nM
[36]
  GI50: 15.5 nM
  TGI: 10.9 µM
[38]
  GI50: 32.8 nM
  TGI: 59.6 µM
[40]
  GI50: 163 nM
  TGI: > 70 µM
[41]
  TGI: 0.774 µM
[44]
  GI50: 16 nM
[45]
  GI50: 22.3 nM
  TGI: > 70 µM
[46]
  GI50: < 7 nM
  TGI: 42.1 µM
[57]
  GI50: 23.5 nM
  TGI: 53.6 µM
[47]
  GI50: 13.8 nM
  TGI: 191 nM and 61.3 nM
[48]
  GI50: < 7 nM
  TGI: > 70 µM
[49]
  GI50: 20.5 nM
  TGI: > 70 µM
[50]
  GI50: > 70 µM
  TGI: > 70 µM
[51]
  TGI: 0.916 µM
[52]
  GI50: 15.6 nM
  TGI: 187 nM and 39 nM
[58]
  GI50: < 7 nM
  TGI: 311 nM and 97.5 nM

## CCc1nc(N)nc(N)c1-c1ccc2nn(-c3ccccc3)[n+]([O-])c2c1
[1]
  TGI: 31.5 µM
[59]
  TGI: 18.8 µM
[53]
  TGI: 29200 nM
[2]
  TGI: 27.8 µM
[3]
  TGI: 18.8 µM
[4]
  TGI: 23.2 µM
[5]
  TGI: 18.9 µM
[6]
  TGI: 35.2 µM
[7]
  TGI: 24.4 µM
[8]
  TGI: 36.8 µM
[60]
  TGI: 38.8 µM
[61]
  TGI: 52.3 µM
[9]
  TGI: 20.2 µM
[10]
  TGI: 63.5 µM
[11]
  TGI: 32.5 µM
[12]
  TGI: 53.1 µM
[55]
  TGI: 34.1 µM
[13]
  TGI: 56.6 µM
[62]
  TGI: 31.7 µM
[15]
  TGI: 11.6 µM
[18]
  TGI: 22100 nM
[19]
  TGI: 41 µM
[20]
  TGI: 18.8 µM
[21]
  TGI: 18200 nM
[22]
  TGI: 24.2 µM
[23]
  TGI: 28.7 µM
[24]
  TGI: 17.5 µM
[25]
  TGI: > 69300 nM
[26]
  TGI: 27 µM
[27]
  TGI: 25 µM
[28]
  TGI: 18.3 µM
[56]
  TGI: 48700 nM
[29]
  TGI: 35.1 µM
[63]
  TGI: 20.1 µM
[31]
  TGI: 18200 nM
[32]
  TGI: 17.3 µM
[33]
  TGI: 18.2 µM
[34]
  TGI: 25.1 µM
[35]
  TGI: 28.3 µM
[36]
  TGI: 26.8 µM
[37]
  TGI: 17.7 µM
[38]
  TGI: 25.3 µM
[64]
  TGI: 20.8 µM
[65]
  TGI: 25.5 µM
[39]
  TGI: 35.7 µM
[66]
  TGI: 23.4 µM
[67]
  TGI: 26.3 µM
[40]
  TGI: 55.6 µM
[41]
  TGI: 22.9 µM
[42]
  TGI: 27.4 µM
[44]
  TGI: 14.8 µM
[57]
  TGI: > 70.4 µM
[47]
  TGI: 22300 nM
[49]
  TGI: 22.7 µM
[50]
  TGI: 44.3 µM
[68]
  TGI: 19.5 µM
[51]
  TGI: 19.6 µM
[52]
  TGI: 20500 nM
[58]
  TGI: 15500 nM
